Source: patent publication US6489351B1, “Condensed 4,5,6,7-tetrahydrobenzo[C]thiophenes as enhancer for cell differentation induction factor action” (Takeda Chemical Industries, Ltd., priority 1996, dated 2002)

What was measured:
[1] = tested on: Mouse-derived osteoblast strain MC3T3-E1; test: Alkaline phosphatase production induction capability in mouse osteoblast strain; type: cell-based; settings: compound 10^−5 M, 72 hours, mean±S.E.; for Alkaline Phosphate Activity (A405 × 1,000), BMP Added (3 ng/ml): 3 ng/ml BMP-4/7 heterodimer, control 397 ± 30 (Experiment 4), 420 ± 1 (Experiment 5); for Alkaline Phosphate Activity (A405 × 1,000), BMP Not Added: no BMP, control 135 ± 2 (Experiment 4), 141 ± 8 (Experiment 5)
Method: Mouse-derived osteoblast strain MC3T3-E1 in α-MEM containing 10% fetal calf serum (FCS) was seeded to 96-well plates (8,000 cells/well); two days later, the sample, previously diluted with a medium containing or not containing 3 ng/ml BMP-4/7 of heterodimer (described in EP-A-0626451) to each concentration shown in Table 2, was added to the cells reaching a confluent state, followed by cultivation for 72 hours. After each plate was once washed with saline, substrate solution was added, followed by incubation at room temperature for 15 minutes. The reaction was stopped by 0.05 N sodium hydroxide, and the absorbance at 405 nm was determined. The values obtained are given in mean±S.E. in Table 2. The data were statistically analyzed by Student's t-test.

[2] = tested on: stromal cells prepared from the femoral marrow of a normal rat; test: Osteogenesis-promoting action: alkaline phosphatase activity in rat femoral marrow stromal cells; type: cell-based; settings: mean±SE
Method: Using stromal cells prepared from the femoral marrow of a normal rat, alkaline phosphatase activity was determined as an index of osteogenesis. Specifically, stromal cells, prepared from the femoral marrow of a 7-week-old male Sprague-Dawley rat by the method of Maniatopoulos et al. [Cell Tissue Research, Vol. 254, p. 317 (1988)], were cultured in an α-MEM (minimum essential medium) solution containing both dexamethasone (10^−7 M) and β-glycerophosphoric acid (10^−2 M) to obtain calcified osteoid tissue. […] After washing with phosphate buffer, the cells were homogenized with 0.2% Nonidet P-40 and centrifuged at 3,000 rpm for 10 minutes. The resulting supernatant was assayed for alkaline phosphatase activity by the method of Lowry et al. [Journal of Biological Chemistry, Vol. 207, p. 19 (1954)]. The values obtained are given in mean±SE in Table 1. The data-were statistically analyzed by Student's t-test.

[3] = compound 10^−5 M, control 694.9 ± 22.7 (Experiment 1), 608.4 ± 20.9 (Experiment 2)
[4] = compound 10^−6 M, Experiment 3, control 63.1 ± 5.0

Row | SMILES | melting point | also measured
1 | CCOC(=O)c1sc(SC)c2c1CCc1sc(C)nc1-2 [Example 1, ethyl 4,5-dihydro-2-methyl-8-methylthiothieno[3,4-e]benzothiazole-6-carboxylate] | 143 to 144 °C | –
2 | CCCSc1sc(C(=O)OCC)c2c1-c1nc(-c3ccccc3)sc1CC2 [Example 3, ethyl 4,5-dihydro-2-phenyl-8-propylthiothieno[3,4-e]benzothiazole-6-carboxylate] | 125 to 126 °C | –
3 | CCOC(=O)c1oc(SC)c2c1CCc1sc(-c3ccccc3)nc1-2 [Example 4, ethyl 4,5-dihydro-8-methylthio-2-phenylfuro[3,4-e]benzothiazole-6-carboxylate] | 170 to 171 °C | –
4 | CCOC(=O)c1sc(SC)c2c1CCC(NC(C)=O)C2=O (stereo not shown) [Example 11, ethyl 5-acetylamino-4,5,6,7-tetrahydro-3-methylthio-4-oxobenzo[c]thiophene-1-carboxylate] | 215 to 216 °C | –
5 | CCOC(=O)c1sc(SC(C)C)c2c1CCC(NC(C)=O)C2=O (stereo not shown) [Example 12, ethyl 5-acetylamino-4,5,6,7-tetrahydro-3-isopropylthio-4-oxobenzo[c]thiophene-1-carboxylate] | 170 to 171 °C | –
6 | CCOC(=O)c1sc(SC)c2c1CCc1nc(C)oc1-2 [Example 17, ethyl 4,5-dihydro-2-methyl-8-methylthiothieno[3,4-g]benzoxazole-6-carboxylate] | 131 to 132 °C | –
7 | CCOC(=O)c1sc(SC(C)C)c2c1CCc1nc(C)oc1-2 [Example 18, ethyl 4,5-dihydro-8-isopropylthio-2-methylthieno[3,4-g]benzoxazole-6-carboxylate] | 62 to 63 °C | –
8 | CSc1sc(C(=O)O)c2c1-c1nc(C)sc1CC2 [Example 22, 4,5-dihydro-2-methyl-8-methylthiothieno[3,4-e]benzothiazole-6-carboxylic acid] | 273 to 274 °C | –
9 | CSc1sc(C(=O)O)c2c1-c1nc(-c3ccccc3)sc1CC2 [Example 23, 4,5-dihydro-8-methylthio-2-phenylthieno[3,4-e]benzothiazole-6-carboxylic acid] | 255 to 256 °C (dec.) | –
10 | CCCSc1sc(C(=O)O)c2c1-c1nc(-c3ccccc3)sc1CC2 [Example 24, 4,5-dihydro-2-phenyl-8-propylthiothieno[3,4-e]benzothiazole-6-carboxylic acid] | 236 to 237 °C (dec.) | –
11 | CSc1sc(C(N)=O)c2c1-c1oc(C)nc1CC2 [Example 46] | – | Alkaline Phosphatase Activity (nmol p-nitrophenol/min/well) [2, 3]: 1,916.8 ± 26.3 nmol p-nitrophenol/min/well
12 | Cc1nc2c(o1)-c1c(SC(C)C)sc(C(N)=O)c1CC2 [Example 47, 4,5-dihydro-8-isopropylthio-2-methylthieno[3,4-g]benzoxazole-6-carboxamide] | 230 to 231 °C | Alkaline Phosphate Activity (A405 × 1,000), BMP Added (3 ng/ml) [1]: 886 ± 35 A405 × 1,000; Alkaline Phosphate Activity (A405 × 1,000), BMP Not Added [1]: 202 ± 21 A405 × 1,000
13 | CCNC(=O)c1sc(SC)c2c1CCc1nc(C)oc1-2 [Example 55] | 175 to 176 °C | –
14 | CCOC(=O)c1cc2c(s1)-c1c(SC)sc(C(=O)OCC)c1CC2 [Example 71, diethyl 4,5-dihydro-8-methylthiobenzo[2,1-c:3,4-b′]dithiophene-2,6-dicarboxylate] | 107 to 108 °C | –
15 | CSc1sc(C(=O)O)c2c1-c1sc(-c3ccccc3)cc1CC2 [Example 75, 4,5-dihydro-8-methylthio-2-phenylbenzo[2,1-c:3,4-b′]dithiophene-6-carboxylic acid] | 215 to 217 °C | –
16 | CSc1sc(C(N)=O)c2c1-c1sc(-c3ccccc3)cc1CC2 [Example 76, 4,5-dihydro-8-methylthio-2-phenylbenzo[2,1-c:3,4-b′]dithiophene-6-carboxamide] | 192 to 193 °C | –
17 | CSc1sc(C(=O)NCc2ccncc2)c2c1-c1nc(-c3ccccc3)sc1CC2 [Example 91, N-(4-pyridylmethyl)-4,5-dihydro-8-methylthio-2-phenylthieno[3,4-e]benzothiazole-6-carboxamide] | 189 to 190 °C | Alkaline Phosphatase Activity (nmol p-nitrophenol/min/well) [2, 4]: 123.2 ± 5.7 nmol p-nitrophenol/min/well
18 | CSc1sc(C(=O)Nc2cccnc2)c2c1-c1nc(-c3ccccc3)sc1CC2 [Example 92, N-(3-pyridyl)-4,5-dihydro-8-methylthio-2-phenylthieno[3,4-e]benzothiazole-6-carboxamide] | 230 to 231 °C | Alkaline Phosphatase Activity (nmol p-nitrophenol/min/well) [2, 4]: 111.4 ± 2.1 nmol p-nitrophenol/min/well
19 | CON(C)C(=O)c1sc(SC)c2c1CCc1sc(-c3ccccc3)nc1-2 [Example 93, N-methoxy-N-methyl-4,5-dihydro-8-methylthio-2-phenylthieno[3,4-e]benzothiazole-6-carboxamide] | 157 to 158 °C | Alkaline Phosphatase Activity (nmol p-nitrophenol/min/well) [2, 4]: 159.9 ± 17.5 nmol p-nitrophenol/min/well

Further lines, with some results ahead:

Row | melting point | SMILES | also measured
20 | 262 to 263 °C | CCOP(=O)(Cc1ccc(NC(=O)c2cc3c(s2)-c2c(SC)sc(C(=O)Nc4ccc(CP(=O)(OCC)OCC)cc4)c2CC3)cc1)OCC | –
21 | 153 to 154 °C | CCOC(=O)c1sc(SC)c2c1CCc1sc(-c3ccccc3)nc1-2 [Example 2, ethyl 4,5-dihydro-8-methylthio-2-phenylthieno[3,4-e]benzothiazole-6-carboxylate] | –
22 | 191 to 192 °C | CCCSc1sc(C(=O)OCC)c2c1C(=O)C(NC(=O)CC)CC2 (stereo not shown) [Example 13, ethyl 4,5,6,7-tetrahydro-4-oxo-5-propionylamino-3-propylthiobenzo[c]thiophene-1-carboxylate] | –
23 | 218 to 219 °C | CCOC(=O)c1sc(SC)c2c1CCc1nc(-c3ccccc3)[nH]c1-2 [Example 21, ethyl 4,5-dihydro-8-methylthio-2-phenylthieno[3,4-e]benzimidazole-6-carboxylate] | –
24 | 277 to 278 °C | Cc1nc2c(o1)-c1c(SC(C)C)sc(C(=O)O)c1CC2 [Example 33, 4,5-dihydro-8-isopropylthio-2-methylthieno[3,4-g]benzoxazole-6-carboxylic acid] | –
25 | 269 to 270 °C | CSc1sc(C(N)=O)c2c1-c1nc(C)sc1CC2 [Example 36, 4,5-dihydro-2-methyl-8-methylthiothieno[3,4-e]benzothiazole-6-carboxamide] | Alkaline Phosphate Activity (A405 × 1,000), BMP Added (3 ng/ml) [1]: 618 ± 13 A405 × 1,000; Alkaline Phosphate Activity (A405 × 1,000), BMP Not Added [1]: 181 ± 6 A405 × 1,000
26 | 203 to 204 °C | CCCSc1sc(C(N)=O)c2c1-c1nc(-c3ccccc3)sc1CC2 [Example 37, 4,5-dihydro-2-phenyl-8-propylthiothieno[3,4-e]benzothiazole-6-carboxamide] | –
27 | 211 to 212 °C | CCNC(=O)c1sc(SC)c2c1CCc1sc(-c3ccccc3)nc1-2 [Example 50, N-ethyl-4,5-dihydro-8-methylthio-2-phenylthieno[3,4-e]benzothiazole-6-carboxamide] | Alkaline Phosphatase Activity (nmol p-nitrophenol/min/well) [2, 3]: 1,463 ± 33.4 nmol p-nitrophenol/min/well
28 | 206 to 207 °C | CSc1sc(C(N)=O)c2c1-c1[nH]c(-c3ccccc3)nc1CC2 [Example 68, 4,5-dihydro-8-methylthio-2-phenylthieno[3,4-e]benzimidazole-6-carboxamide] | –
29 | 79 to 80 °C | CCOC(=O)c1sc(SC)c2c1CCC(C=O)=C2Cl [Example 69, ethyl 4-chloro-5-formyl-6,7-dihydro-3-methylthiobenzo[c]thiophene-1-carboxylate] | –
30 | 102 to 103 °C | CCOC(=O)CSC1=C(C=O)CCc2c(C(=O)OCC)sc(SC)c21 [Example 70, ethyl 4-ethoxycarbonylmethylthio-5-formyl-6,7-dihydro-3-methylthiobenzo[c]thiophene-1-carboxylate] | –
31 | 236 to 237 °C | CSc1sc(C(=O)NCc2ccc3c(c2)OCO3)c2c1-c1nc(-c3ccccc3)sc1CC2 [Example 90, N-(3,4-methylenedioxybenzyl)-4,5-dihydro-8-methylthio-2-phenylthieno[3,4-e]benzothiazole-6-carboxamide] | Alkaline Phosphatase Activity (nmol p-nitrophenol/min/well) [2, 4]: 102.9 ± 7.3 nmol p-nitrophenol/min/well
